Measurements from patent US12673936B2, “Isoindolinone compounds, and uses thereof” (HANGZHOU GLUBIO PHARMACEUTICAL CO., LTD., priority 2021, dated 2026).

How the values were obtained:
HiBiT tagged CK1α = HiBiT tagged CK1α (Homo sapiens, UniProt P48729+Q96SW2); experiment: CK1α degradation assay (HiBiT assay); assay type: cell-based; conditions: 20 hours; for Dmax: HT-1080, HT-1080 cells; for Dmax / HiBiT CK1α: Dmax: maximum CK1α degradation; for DC50 / HiBiT CK1α: Dmax: HT-1080 cells; for DC50: concentration at 50% CK1α degradation
Protocol: (§1) CK1α and GSPT1 Degradation Assay (HiBiT Assay) The following is an example of an assay that can be used to determine the dose-dependent CK1α and GSPT1 degradation activities of test compounds in a human cell line such as HT-1080 ([…]). HT-1080 cells stably overexpressing wild-type CRBN, GSPT1A(1-138)/G575N mutant and HiBiT tagged CK1α or GSPT1 were seeded into 384-well plates (Cat #3764, Corning) pre-spotted with DMSO or test compounds. Increasing concentrations of test compounds (ranging from 3.162×10^-4 μM to 10 μM at a 3.16-fold increment) or DMSO were dispensed into an empty 384-well plate using an Echo Acoustic Liquid Handler (Beckman Coulter). About 10,000 cells in complete DMEM cell culture media were seeded per well. […] Luminescence was then measured with an EnVision plate reader (PerkinElmer) or a PHERAstar plate reader (BMG Labtech). All CK1α or GSPT1 degradation curves were processed using Collaborative Drug Discovery Vault softwares (Burlingame, CA., www.collaborativedrug.com). CK1α or GSPT1 levels in compound-treated wells were normalized to that of DMSO control and expressed as Percent of Control (PoC, y). […]

HiBiT tagged GSPT1 = HiBiT tagged GSPT1 (Homo sapiens, UniProt P15170+Q96SW2); experiment: GSPT1 degradation assay (HiBiT assay); assay type: cell-based; conditions: for Dmax: HT-1080, HT-1080 cells; for Dmax / HiBiT GSPT1: Dmax: 20 hours, maximum GSPT1 degradation
Protocol: as §1

HiBiT tagged GSPT1, sequence (P15170 whole entry): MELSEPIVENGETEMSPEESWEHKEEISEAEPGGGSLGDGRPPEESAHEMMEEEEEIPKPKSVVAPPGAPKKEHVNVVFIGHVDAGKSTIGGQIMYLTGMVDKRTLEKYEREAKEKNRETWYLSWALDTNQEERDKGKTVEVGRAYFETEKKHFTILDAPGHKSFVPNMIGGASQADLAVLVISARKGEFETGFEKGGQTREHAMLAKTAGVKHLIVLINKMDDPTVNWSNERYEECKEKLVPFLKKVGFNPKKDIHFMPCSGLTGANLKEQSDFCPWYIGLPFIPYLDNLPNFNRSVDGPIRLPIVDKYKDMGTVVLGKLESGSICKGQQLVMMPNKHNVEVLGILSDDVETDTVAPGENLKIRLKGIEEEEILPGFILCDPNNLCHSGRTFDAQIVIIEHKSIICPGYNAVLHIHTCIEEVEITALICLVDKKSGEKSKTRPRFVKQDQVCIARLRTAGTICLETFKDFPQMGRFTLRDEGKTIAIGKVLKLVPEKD
HiBiT tagged GSPT1, sequence (Q96SW2 whole entry): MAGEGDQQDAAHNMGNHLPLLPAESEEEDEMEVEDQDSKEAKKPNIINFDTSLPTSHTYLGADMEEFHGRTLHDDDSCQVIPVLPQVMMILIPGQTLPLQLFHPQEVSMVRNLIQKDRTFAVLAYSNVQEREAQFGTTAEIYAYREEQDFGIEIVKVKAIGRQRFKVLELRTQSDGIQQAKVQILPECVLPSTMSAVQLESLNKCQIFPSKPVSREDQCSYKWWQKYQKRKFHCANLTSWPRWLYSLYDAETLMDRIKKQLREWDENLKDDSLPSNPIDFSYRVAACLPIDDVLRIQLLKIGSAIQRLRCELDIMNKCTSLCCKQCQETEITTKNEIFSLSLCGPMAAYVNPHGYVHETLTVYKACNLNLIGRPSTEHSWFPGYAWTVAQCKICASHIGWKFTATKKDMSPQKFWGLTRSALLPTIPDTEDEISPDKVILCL
HiBiT tagged GSPT1, sequence (Q16531 whole entry partner): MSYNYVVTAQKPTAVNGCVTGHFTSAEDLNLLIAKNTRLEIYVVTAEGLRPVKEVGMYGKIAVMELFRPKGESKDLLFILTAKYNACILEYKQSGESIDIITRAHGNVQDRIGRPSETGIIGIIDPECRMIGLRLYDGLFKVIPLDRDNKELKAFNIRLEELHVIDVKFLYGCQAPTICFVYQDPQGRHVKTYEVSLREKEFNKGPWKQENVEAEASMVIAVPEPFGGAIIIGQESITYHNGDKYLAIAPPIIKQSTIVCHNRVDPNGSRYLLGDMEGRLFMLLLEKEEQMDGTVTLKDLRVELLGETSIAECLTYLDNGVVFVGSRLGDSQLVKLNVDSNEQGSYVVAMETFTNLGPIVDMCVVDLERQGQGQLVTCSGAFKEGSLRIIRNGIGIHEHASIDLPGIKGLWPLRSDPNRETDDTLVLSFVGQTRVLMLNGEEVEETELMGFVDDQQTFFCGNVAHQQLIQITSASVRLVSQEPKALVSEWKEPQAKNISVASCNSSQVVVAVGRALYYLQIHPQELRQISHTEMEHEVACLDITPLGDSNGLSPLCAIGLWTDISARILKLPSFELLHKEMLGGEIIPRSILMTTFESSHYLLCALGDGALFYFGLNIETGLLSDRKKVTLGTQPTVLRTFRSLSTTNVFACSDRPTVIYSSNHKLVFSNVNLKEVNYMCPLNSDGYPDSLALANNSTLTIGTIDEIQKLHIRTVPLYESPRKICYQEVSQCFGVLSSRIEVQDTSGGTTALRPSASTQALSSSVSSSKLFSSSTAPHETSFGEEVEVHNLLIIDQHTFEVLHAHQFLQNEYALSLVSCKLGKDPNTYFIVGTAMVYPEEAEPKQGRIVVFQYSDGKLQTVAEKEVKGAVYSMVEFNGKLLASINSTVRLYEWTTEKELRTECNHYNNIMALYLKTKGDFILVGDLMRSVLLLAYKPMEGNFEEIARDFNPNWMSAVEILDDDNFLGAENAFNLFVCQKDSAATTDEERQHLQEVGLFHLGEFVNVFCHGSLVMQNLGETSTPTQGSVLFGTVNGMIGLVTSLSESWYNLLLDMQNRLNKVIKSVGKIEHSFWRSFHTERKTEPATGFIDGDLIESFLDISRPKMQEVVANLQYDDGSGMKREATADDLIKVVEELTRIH
HiBiT tagged CK1α, sequence (P48729 whole entry): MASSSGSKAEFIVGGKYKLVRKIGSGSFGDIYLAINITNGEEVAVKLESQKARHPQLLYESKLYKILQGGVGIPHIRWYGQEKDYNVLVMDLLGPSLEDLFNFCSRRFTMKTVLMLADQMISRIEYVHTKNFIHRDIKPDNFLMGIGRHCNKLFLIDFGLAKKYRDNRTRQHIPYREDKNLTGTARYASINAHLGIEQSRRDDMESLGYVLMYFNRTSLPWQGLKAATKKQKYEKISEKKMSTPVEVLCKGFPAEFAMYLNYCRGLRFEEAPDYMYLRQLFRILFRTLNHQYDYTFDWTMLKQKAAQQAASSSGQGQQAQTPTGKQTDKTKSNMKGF
HiBiT tagged CK1α, sequence (Q96SW2 whole entry): as the sequence (Q96SW2 whole entry) above
HiBiT tagged CK1α, sequence (Q16531 whole entry partner): as the sequence (Q16531 whole entry partner) above

Compound | Dmax (HiBiT tagged CK1α) [%] | DC50 (HiBiT tagged CK1α) [nM] | Dmax (HiBiT tagged GSPT1) [%] | HiBiT CK1α: Dmax (HiBiT tagged CK1α) [%] | HiBiT GSPT1: Dmax (HiBiT tagged GSPT1; HT-1080 cells) [%] | GSPT1 degradation (in words) (HiBiT tagged GSPT1; HT-1080 cells)
O=C1CCC(N2Cc3cc(C(=O)NC(c4ccc(F)cc4)C4CCCC4)ccc3C2=O)C(=O)N1 (stereo not drawn) [Compound 37, N-(cyclopentyl(4-fluorophenyl)methyl)-2-(2,6-dioxopiperidin-3-yl)-1-oxoisoindoline-5-carboxamide] | 70.8 | 72.7 | 36.2 |  |  | 
Cc1cccc([C@H](NC(=O)c2ccc3c(c2)CN(C2CCC(=O)NC2=O)C3=O)C2CC2)c1 (stereo in doubt) [Compound 29, N-((*R)-cyclopropyl(m-tolyl)methyl)-2-(2,6-dioxopiperidin-3-yl)-1-oxoisoindoline-5-carboxamide] | 58.8 | 553 | 22 |  |  | 
Cc1ccc(NC(=O)NCc2ccc3c(c2)CN(C2CCC(=O)NC2=O)C3=O)cc1Cl (stereo not drawn) [CC-885, reference compound] | 53.7 | 653 | 92.5 |  |  | effectively degraded GSPT1
Cc1ccccc1[C@@H](NC(=O)c1ccc2c(c1)CN(C1CCC(=O)NC1=O)C2=O)C1CC1 (stereo in doubt) [Compound 39, N-((*S)-cyclopropyl(o-tolyl)methyl)-2-(2,6-dioxopiperidin-3-yl)-1-oxoisoindoline-5-carboxamide] | 61 | 363 | 32.5 |  |  | 
CN1CCN(c2ccc([C@@H](NC(=O)c3ccc4c(c3)CN(C3CCC(=O)NC3=O)C4=O)C3CCC3)cc2)CC1 (stereo in doubt) [Compound 21, N-((*S)-cyclobutyl(4-(4-methylpiperazin-1-yl)phenyl)methyl)-2-(2,6-dioxopiperidin-3-yl)-1-oxoisoindoline-5-carboxamide] | 60.6 | 132 | 20.6 |  |  | 
O=C1CCC(N2Cc3cc(C(=O)NC(c4cccc(F)c4Cl)C4CC4)ccc3C2=O)C(=O)N1 (stereo not drawn) [Compound 43, N-((2-chloro-3-fluorophenyl)(cyclopropyl)methyl)-2-(2,6-dioxopiperidin-3-yl)-1-oxoisoindoline-5-carboxamide] | 69.8 | 49.6 | 58.2 |  |  | 
O=C1CCC(N2Cc3cc(C(=O)N[C@H](c4c(F)cccc4F)C4CC4)ccc3C2=O)C(=O)N1 (stereo in doubt) [Compound 17, N-((*S)-cyclopropyl(2,6-difluorophenyl)methyl)-2-(2,6-dioxopiperidin-3-yl)-1-oxoisoindoline-5-carboxamide] | 68.1 | 123 | 49.3 |  |  | 
O=C1CCC(N2Cc3cc(C(=O)NC(c4ccc(F)c(F)c4)C4CCC4)ccc3C2=O)C(=O)N1 (stereo not drawn) [Compound 40, N-(cyclobutyl(3,4-difluorophenyl)methyl)-2-(2,6-dioxopiperidin-3-yl)-1-oxoisoindoline-5-carboxamide] | 57.5 | 416 | 30.6 |  |  | 
O=C1CCC(N2Cc3cc(C(=O)NC(c4ccc(F)cc4Cl)C4CCC4)ccc3C2=O)C(=O)N1 (stereo not drawn) [Compound 19, N-((2-chloro-4-fluorophenyl)(cyclobutyl)methyl)-2-(2,6-dioxopiperidin-3-yl)-1-oxoisoindoline-5-carboxamide] | 69.6 | 65.9 | 43 |  |  | 
O=C1CCC(N2Cc3cc(C(=O)NC(c4ccc(Cl)cc4F)C4CC4)ccc3C2=O)C(=O)N1 (stereo not drawn) [Compound 14, N-((4-chloro-2-fluorophenyl)(cyclopropyl)methyl)-2-(2,6-dioxopiperidin-3-yl)-1-xoisoindoline-5-carboxamide] | 67.1 | 284 | 45.5 |  |  | 
O=C1CCC(N2Cc3cc(C(=O)N[C@H](c4ncccc4Cl)C4CCC4)ccc3C2=O)C(=O)N1 (stereo in doubt) [Compound 18, N-((*S)-(3-chloropyridin-2-yl)(cyclobutyl)methyl)-2-(2,6-dioxopiperidin-3-yl)-1-oxoisoindoline-5-carboxamide] | 66 | 137 | 58.5 |  |  | 

Continued, values first:

Dmax (HiBiT tagged CK1α) [%] | DC50 (HiBiT tagged CK1α) [nM] | Dmax (HiBiT tagged GSPT1) [%] | HiBiT CK1α: Dmax (HiBiT tagged CK1α) [%] | HiBiT GSPT1: Dmax (HiBiT tagged GSPT1; HT-1080 cells) [%] | GSPT1 degradation (in words) (HiBiT tagged GSPT1; HT-1080 cells) | Compound
67.9 | 118 | 55.3 |  |  |  | O=C1CCC(N2Cc3cc(C(=O)N[C@@H](c4c(F)cccc4F)C4CCC4)ccc3C2=O)C(=O)N1 (stereo in doubt) [Compound 66, N-((*R)-cyclobutyl(2,6-difluorophenyl)methyl)-2-(2,6-dioxopiperidin-3-yl)-1-oxoisoindoline-5-carboxamide]
 | 128 |  | 64.4 | 19.1 |  | O=C1CC[C@H](N2Cc3cc(C(=O)N[C@H](c4ccc(Cl)cc4F)C4CCC4)ccc3C2=O)C(=O)N1 (racemic) [Compound 57, N-((*S)-(4-chloro-2-fluorophenyl)(cyclobutyl)methyl)-2-((*S)-2,6-dioxopiperidin-3-yl)-1-oxoisoindoline-5-carboxamide]
 | 93.7 |  | 63.6 | 15.3 |  | O=C1CC[C@@H](N2Cc3cc(C(=O)N[C@H](c4ccc(Cl)cc4F)C4CCC4)ccc3C2=O)C(=O)N1 (racemic) [Compound 56, N-((*S)-(4-chloro-2-fluorophenyl)(cyclobutyl)methyl)-2-((*R)-2,6-dioxopiperidin-3-yl)-1-oxoisoindoline-5-carboxamide]
56.1 | 2960 | 29.7 |  |  |  | O=C1CCC(N2Cc3cc(C(=O)NC(c4ccc(F)c(F)c4)C4CCC4)ccc3C2=O)C(=O)N1 (single isomer, unassigned) [Compound 47, N-((*R)-cyclobutyl(3,4-difluorophenyl)methyl)-2-((*R)-2,6-dioxopiperidin-3-yl)-1-oxoisoindoline-5-carboxamide]
 | 130 |  | 66.2 | 26.2 |  | O=C1CC[C@H](N2Cc3cc(C(=O)N[C@H](c4ccc(F)c(F)c4)C4CCC4)ccc3C2=O)C(=O)N1 (racemic) [Compound 48, N-((*S)-cyclobutyl(3,4-difluorophenyl)methyl)-2-((S)-2,6-dioxopiperidin-3-yl)-1-oxoisoindoline-5-carboxamide]
61.7 | 455 | 19.1 |  |  |  | O=C1CCC(N2Cc3cc(C(=O)N[C@H](c4ncc(F)cc4Cl)C4CC4)ccc3C2=O)C(=O)N1 (stereo in doubt) [Compound 71, N-((*S)-(3-chloro-5-fluoropyridin-2-yl)(cyclopropyl)methyl)-2-(2,6-dioxopiperidin-3-yl)-1-oxoisoindoline-5-carboxamide]
 | 53.5 |  | 72.2 | 29 |  | O=C1CC[C@H](N2Cc3cc(C(=O)N[C@H](c4ccc(F)cc4)C4CCCC4)ccc3C2=O)C(=O)N1 (racemic) [Compound 63, N-((*S)-cyclopentyl(4-fluorophenyl)methyl)-2-((S)-2,6-dioxopiperidin-3-yl)-1-oxoisoindoline-5-carboxamide]
 | < 47.1 | 27.4 | 49 |  |  | O=C1CC[C@H](N2Cc3cc(C(=O)N[C@H](c4ccc(F)cc4)C4CCCC4)ccc3C2=O)C(=O)N1 (racemic) [Compound 60, N-((*R)-cyclopentyl(4-fluorophenyl)methyl)-2-((S)-2,6-dioxopiperidin-3-yl)-1-oxoisoindoline-5-carboxamide]
76.4 | 40 | 31.7 |  |  |  | O=C1CCC(N2Cc3cc(C(=O)N[C@H](c4c(F)cccc4F)C4CCC4)ccc3C2=O)C(=O)N1 (stereo in doubt) [Compound 67, N-((*S)-cyclobutyl(2,6-difluorophenyl)methyl)-2-(2,6-dioxopiperidin-3-yl)-1-oxoisoindoline-5-carboxamide]
70.2 | 118 | 24.2 |  |  |  | O=C1CCC(N2Cc3cc(C(=O)NC(c4ccc(F)cc4Cl)C4CCC4)ccc3C2=O)C(=O)N1 (single isomer, unassigned) [Compound 53, N-((*S)-(2-chloro-4-fluorophenyl)(cyclobutyl)methyl)-2-((*S)-2,6-dioxopiperidin-3-yl)-1-oxoisoindoline-5-carboxamide]
49.5 |  | 22.5 |  |  |  | N#Cc1cccc(C(NC(=O)c2ccc3c(c2)CN(C2CCC(=O)NC2=O)C3=O)C2CC2)c1 (stereo not drawn) [Compound 44, N-((3-cyanophenyl)(cyclopropyl)methyl)-2-(2,6-dioxopiperidin-3-yl)-1-oxoisoindoline-5-carboxamide]
57.8 | 948 |  |  | 48 |  | O=C1CC[C@H](N2Cc3cc(C(=O)N[C@H](c4ccc(Cl)cc4F)C4CCC4)ccc3C2=O)C(=O)N1 (racemic) [Compound 55, N-((*S)-(4-chloro-2-fluorophenyl)(cyclobutyl)methyl)-2-((*S)-2,6-dioxopiperidin-3-yl)-1-oxoisoindoline-5-carboxamide]
65.5 | 132 | 45.2 |  |  |  | O=C1CCC(N2Cc3cc(C(=O)N[C@@H](c4ccc(F)cc4Cl)C4CCC4)ccc3C2=O)C(=O)N1 (stereo in doubt) [Compound 72, N-((*R)-(2-chloro-4-fluorophenyl)(cyclobutyl)methyl)-2-(2,6-dioxopiperidin-3-yl)-1-oxoisoindoline-5-carboxamide]
